{"source": "ChEMBL document CHEMBL3044779", "about": "“The action of herbicides on fatty acid biosynthesis and elongation in barley and cucumber” (Pest Manag Sci, 2010)", "key": {"Cucumis sativus [1]": {"system": "Cucumis sativus", "assay": "Inhibition of fatty acid synthesis in Cucumis sativus (cucumber) using [14C]acetate assessed as [14C]-labeled 20C fatty acid level at 100 uM after 3 hr by liquid scintillation counting (reference value: 9 +/- 0.9%)", "type": "functional", "parameters": "scale not given: the % may be the effect or the level left"}, "Acetyl-CoA carboxylase [2]": {"molecular_target": "T1, Acetyl-CoA carboxylase (Zea mays, UniProt Q3V4E6)", "T1 sequence (Q3V4E6 whole entry)": "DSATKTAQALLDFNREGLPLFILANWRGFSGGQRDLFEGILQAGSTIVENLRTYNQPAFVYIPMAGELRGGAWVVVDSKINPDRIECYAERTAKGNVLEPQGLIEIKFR", "assay": "Inhibition of Zea mays (maize) chloroplastic ACCase using acetyl-coA as substrate assessed as inhibition of [14C]NaHCO3 incorporation into malonyl-coA incubated for 10 min prior to substrate addition measured for 20 min by liquid scintillation counting"}, "Hordeum vulgare [3]": {"system": "Hordeum vulgare", "assay": "Inhibition of fatty acid synthesis in Hordeum vulgare (barley) using [14C]malonate assessed as [14C]-labeled 18C fatty acid level at 100 uM after 3 hr by liquid scintillation counting (reference value: 22.8 +/- 2.7%)", "type": "functional", "parameters": "scale not given: the % may be the effect or the level left"}, "Cucumis sativus [4]": {"system": "Cucumis sativus", "assay": "Inhibition of fatty acid synthesis in Cucumis sativus (cucumber) assessed as inhibition of [14C]acetate incoporation in total fatty acids at 100 uM measured as total disintegration per g of fresh weight after 3 hr by liquid scintillation counting (reference value: 12.1 +/- 1.4%)", "type": "functional"}, "Hordeum vulgare [5]": {"system": "Hordeum vulgare", "assay": "Inhibition of fatty acid synthesis in Hordeum vulgare (barley) using [14C]malonate assessed as [14C]-labeled 26C fatty acid level at 100 uM after 3 hr by liquid scintillation counting (reference value: 8.3 +/- 0.4%)", "type": "functional", "parameters": "scale not given: the % may be the effect or the level left"}, "Cucumis sativus [6]": {"system": "Cucumis sativus", "assay": "Inhibition of fatty acid synthesis in Cucumis sativus (cucumber) using [14C]malonate assessed as [14C]-labeled 22C fatty acid level at 100 uM after 3 hr by liquid scintillation counting (reference value: 48.5 +/- 6.4%)", "type": "functional", "parameters": "scale not given: the % may be the effect or the level left"}, "Cucumis sativus [7]": {"system": "Cucumis sativus", "assay": "Inhibition of fatty acid synthesis in Cucumis sativus (cucumber) using [14C]malonate assessed as [14C]-labeled 16C fatty acid level at 100 uM after 3 hr by liquid scintillation counting (reference value: 8.5 +/- 1.4%)", "type": "functional", "parameters": "scale not given: the % may be the effect or the level left"}, "Cucumis sativus [8]": {"system": "Cucumis sativus", "assay": "Inhibition of fatty acid synthesis in Cucumis sativus (cucumber) using [14C]acetate assessed as reduction in [14C]-labeled 24C fatty acid level at 100 uM after 3 hr by liquid scintillation counting relative to control", "type": "functional, organism-based"}, "Cucumis sativus [9]": {"system": "Cucumis sativus", "assay": "Inhibition of fatty acid synthesis in Cucumis sativus (cucumber) assessed as inhibition of [14C]malonate incoporation in total fatty acids at 100 uM measured as total disintegration per g of fresh weight after 3 hr by liquid scintillation counting (reference value: 7.6 +/- 1.6%)", "type": "functional"}, "Hordeum vulgare [10]": {"system": "Hordeum vulgare", "assay": "Inhibition of fatty acid synthesis in Hordeum vulgare (barley) using [14C]acetate assessed as [14C]-labeled 16C fatty acid level at 100 uM after 3 hr by liquid scintillation counting (reference value: 29.2 +/- 2.1%)", "type": "functional", "parameters": "scale not given: the % may be the effect or the level left"}, "Hordeum vulgare [11]": {"system": "Hordeum vulgare", "assay": "Inhibition of fatty acid synthesis in Hordeum vulgare (barley) using [14C]malonate assessed as [14C]-labeled 22C fatty acid level at 100 uM after 3 hr by liquid scintillation counting (reference value: 31.3 +/- 1.6%)", "type": "functional", "parameters": "scale not given: the % may be the effect or the level left"}, "Cucumis sativus [12]": {"system": "Cucumis sativus", "assay": "Inhibition of fatty acid synthesis in Cucumis sativus (cucumber) using [14C]malonate assessed as [14C]-labeled 20C fatty acid level at 100 uM after 3 hr by liquid scintillation counting (reference value: 11.5 +/- 3%)", "type": "functional", "parameters": "scale not given: the % may be the effect or the level left"}, "Cucumis sativus [13]": {"system": "Cucumis sativus", "assay": "Inhibition of fatty acid synthesis in Cucumis sativus (cucumber) using [14C]acetate assessed as [14C]-labeled 16C fatty acid level at 100 uM after 3 hr by liquid scintillation counting (reference value: 31.9 +/- 5%)", "type": "functional", "parameters": "scale not given: the % may be the effect or the level left"}, "Hordeum vulgare [14]": {"system": "Hordeum vulgare", "assay": "Inhibition of fatty acid synthesis in Hordeum vulgare (barley) using [14C]malonate assessed as [14C]-labeled 24C fatty acid level at 100 uM after 3 hr by liquid scintillation counting (reference value: 20 +/- 1.2%)", "type": "functional", "parameters": "scale not given: the % may be the effect or the level left"}, "Hordeum vulgare [15]": {"system": "Hordeum vulgare", "assay": "Inhibition of fatty acid synthesis in Hordeum vulgare (barley) using [14C]malonate assessed as [14C]-labeled 20C fatty acid level at 100 uM after 3 hr by liquid scintillation counting (reference value: 14.5 +/- 1.7%)", "type": "functional", "parameters": "scale not given: the % may be the effect or the level left"}, "Cucumis sativus [16]": {"system": "Cucumis sativus", "assay": "Inhibition of fatty acid synthesis in Cucumis sativus (cucumber) using [14C]acetate assessed as [14C]-labeled 22C fatty acid level at 100 uM after 3 hr by liquid scintillation counting (reference value: 25.5 +/- 2%)", "type": "functional", "parameters": "scale not given: the % may be the effect or the level left"}, "Cucumis sativus [17]": {"system": "Cucumis sativus", "assay": "Inhibition of fatty acid synthesis in Cucumis sativus (cucumber) using [14C]malonate assessed as [14C]-labeled 24C fatty acid level at 100 uM after 3 hr by liquid scintillation counting (reference value: 9 +/- 2.5%)", "type": "functional", "parameters": "scale not given: the % may be the effect or the level left"}, "Hordeum vulgare [18]": {"system": "Hordeum vulgare", "assay": "Inhibition of fatty acid synthesis in Hordeum vulgare (barley) using [14C]acetate assessed as [14C]-labeled 20C fatty acid level at 100 uM after 3 hr by liquid scintillation counting (reference value: 3.8 +/- 0.6%)", "type": "functional", "parameters": "scale not given: the % may be the effect or the level left"}, "Hordeum vulgare [19]": {"system": "Hordeum vulgare", "assay": "Inhibition of fatty acid synthesis in Hordeum vulgare (barley) using [14C]acetate assessed as [14C]-labeled 18C fatty acid level at 100 uM after 3 hr by liquid scintillation counting (reference value: 53.7 +/- 0.7%)", "type": "functional", "parameters": "scale not given: the % may be the effect or the level left"}, "Hordeum vulgare [20]": {"system": "Hordeum vulgare", "assay": "Inhibition of fatty acid synthesis in Hordeum vulgare (barley) assessed as inhibition of [14C]acetate incoporation in total fatty acids at 100 uM measured as total disintegration per g of fresh weight after 3 hr by liquid scintillation counting (reference value: 9.2 +/- 2.4%)", "type": "functional"}, "Acetyl-CoA carboxylase [21]": {"molecular_target": "T1, Acetyl-CoA carboxylase", "assay": "Inhibition of Zea mays (maize) cytosolic ACCase using acetyl-coA as substrate assessed as inhibition of [14C]NaHCO3 incorporation into malonyl-coA incubated for 10 min prior to substrate addition measured for 20 min by liquid scintillation counting"}, "Hordeum vulgare [22]": {"system": "Hordeum vulgare", "assay": "Inhibition of fatty acid synthesis in Hordeum vulgare (barley) using [14C]acetate assessed as [14C]-labeled 22C fatty acid level at 100 uM after 3 hr by liquid scintillation counting (reference value: 8.3 +/- 0.9%)", "type": "functional", "parameters": "scale not given: the % may be the effect or the level left"}, "Cucumis sativus [23]": {"system": "Cucumis sativus", "assay": "Inhibition of fatty acid synthesis in Cucumis sativus (cucumber) using [14C]acetate assessed as [14C]-labeled 18C fatty acid level at 100 uM after 3 hr by liquid scintillation counting (reference value: 26.6 +/- 1.6%)", "type": "functional", "parameters": "scale not given: the % may be the effect or the level left"}, "Cucumis sativus [24]": {"system": "Cucumis sativus", "assay": "Inhibition of fatty acid synthesis in Cucumis sativus (cucumber) using [14C]malonate assessed as [14C]-labeled 18C fatty acid level at 100 uM after 3 hr by liquid scintillation counting (reference value: 22.5 +/- 2.2%)", "type": "functional", "parameters": "scale not given: the % may be the effect or the level left"}, "Hordeum vulgare [25]": {"system": "Hordeum vulgare", "assay": "Inhibition of fatty acid synthesis in Hordeum vulgare (barley) using [14C]malonate assessed as [14C]-labeled 16C fatty acid level at 100 uM after 3 hr by liquid scintillation counting (reference value: 3.1 +/- 0.6%)", "type": "functional", "parameters": "scale not given: the % may be the effect or the level left"}, "Hordeum vulgare [26]": {"system": "Hordeum vulgare", "assay": "Inhibition of fatty acid synthesis in Hordeum vulgare (barley) assessed as inhibition of [14C]malonate incoporation in total fatty acids at 100 uM measured as total disintegration per g of fresh weight after 3 hr by liquid scintillation counting (reference value: 8.8 +/- 2.4%)", "type": "functional"}, "Hordeum vulgare [27]": {"system": "Hordeum vulgare", "assay": "Inhibition of fatty acid synthesis in Hordeum vulgare (barley) using [14C]acetate assessed as [14C]-labeled 24C fatty acid level at 100 uM after 3 hr by liquid scintillation counting (reference value: 5 +/- 0.8%)", "type": "functional", "parameters": "scale not given: the % may be the effect or the level left"}}, "note": "Calls of active or inactive are those of the source. The rule behind the calls is not given here."}
{"smiles": "Cc1sc(-c2ccc(Cl)cc2)nc1C1C(=O)CC2(CCCCC2)C1=O", "note": "(configuration not stated) [Spiro-decanedione A]", "values": [{"measurement": "Activity", "setting": "Cucumis sativus [1]", "result": 3.4, "unit": "%"}, {"measurement": "IC50", "setting": "Acetyl-CoA carboxylase [2]", "result": 0.008, "unit": "µM"}, {"measurement": "Activity", "setting": "Hordeum vulgare [3]", "result": 18.6, "unit": "%"}, {"measurement": "Activity", "setting": "Cucumis sativus [4]", "result": 14.3, "unit": "×10⁶ dpm"}, {"measurement": "Activity", "setting": "Hordeum vulgare [5]", "result": 8.2, "unit": "%"}, {"measurement": "Activity", "setting": "Cucumis sativus [6]", "result": 43, "unit": "%"}, {"measurement": "Activity", "setting": "Cucumis sativus [7]", "result": 8.9, "unit": "%"}, {"measurement": "inhibition", "setting": "Cucumis sativus [8]", "result": "Active"}, {"measurement": "Activity", "setting": "Cucumis sativus [9]", "result": 12.7, "unit": "×10⁶ dpm"}, {"measurement": "Activity", "setting": "Hordeum vulgare [10]", "result": 4.6, "unit": "%"}, {"measurement": "Activity", "setting": "Hordeum vulgare [11]", "result": 31.2, "unit": "%"}, {"measurement": "Activity", "setting": "Cucumis sativus [12]", "result": 18.1, "unit": "%"}, {"measurement": "Activity", "setting": "Cucumis sativus [13]", "result": 50.5, "unit": "%"}, {"measurement": "Activity", "setting": "Hordeum vulgare [14]", "result": 25.3, "unit": "%"}, {"measurement": "Activity", "setting": "Hordeum vulgare [15]", "result": 15.8, "unit": "%"}, {"measurement": "Activity", "setting": "Cucumis sativus [16]", "result": 2.3, "unit": "%"}, {"measurement": "Activity", "setting": "Cucumis sativus [17]", "result": 10, "unit": "%"}, {"measurement": "Activity", "setting": "Hordeum vulgare [18]", "result": 24.4, "unit": "%"}, {"measurement": "Activity", "setting": "Hordeum vulgare [19]", "result": 20.5, "unit": "%"}, {"measurement": "Activity", "setting": "Hordeum vulgare [20]", "result": 3.6, "unit": "×10⁶ dpm"}, {"measurement": "IC50", "setting": "Acetyl-CoA carboxylase [21]", "result": 0.02, "unit": "µM"}, {"measurement": "Activity", "setting": "Hordeum vulgare [22]", "result": 33.7, "unit": "%"}, {"measurement": "Activity", "setting": "Cucumis sativus [23]", "result": 43.8, "unit": "%"}, {"measurement": "Activity", "setting": "Cucumis sativus [24]", "result": 20, "unit": "%"}, {"measurement": "Activity", "setting": "Hordeum vulgare [25]", "result": 0.9, "unit": "%"}, {"measurement": "Activity", "setting": "Hordeum vulgare [26]", "result": 9.9, "unit": "×10⁶ dpm"}, {"measurement": "Activity", "setting": "Hordeum vulgare [27]", "result": 16.8, "unit": "%"}]}
